# Test results as given in US5516790A, “Synthesis and application of alkyl-substituted dibenzofurans as antitumorigenic agents” (Texas A&M University System Technology Licensing Office, priority 1994, dated 1996).
# What was measured:
# [1] = test system: progesterone receptor (PR); test: Uterine progesterone receptor levels, hydroxyapatite assay (Example 8); assay type: in vivo, female Sprague-Dawley rats
# Protocol: (§1) The animals were terminated by cervical dislocation. Livers were perfused with ice-cold TEDG buffer (10 mM Tris-HCl, 1.5 mM EDTA-4Na, 1 mM dithiothreitol, 10% glycerol (v/v), pH 7.4). Following perfusion in situ, livers were removed, weighed, and homogenized in ice-cold TEDG buffer. Uteri were also removed, weighed, and homogenized in ice-cold buffer. The homogenates were then centrifuged at 800×g ([…]) for 15 minutes and the nuclear pellets were stored at -80° C. The supernatants were further centrifuged at 180,000× g for 1.5 hours. The cytosolic supernatant was also stored at -80° C. Estrogen and progesterone receptor levels were determined within 7 days.
# (§2) Estrogen (ER) and progesterone (PR) receptor levels were determined by the hydroxyapatite assay as described by Clark et al. (J. Steroid Biochem. 16:323-328, 1982) and incorporated herein by reference. […] Following the incubations, samples were counted and specific binding was calculated by subtraction of nonspecific from total binding. Assuming one steroid molecule binds to one estrogen/progesterone receptor, the number of moles of receptor can be calculated given the specific activity of the radioligand. The data presented in Tables 1 through 6 are means ± SD using at least four animals per treatment group. Significant differences were determined by analysis of variance.
# estrogen receptor (ER) = test: Uterine estrogen receptor levels, hydroxyapatite assay (Example 8); assay type: in vivo, female Sprague-Dawley rats
# Protocol: A second group of animals was similarly treated with corn oil, TCDD, MCDF, or TCDD plus MCDF, all administered in corn oil at 10 ml/kg and terminated 72 hours later.
# as §1, §2
# female rat uterus = test: Antiestrogenic effect on uterine wet weight, immature female Sprague-Dawley rats (Example 8); assay type: in vivo
# [2] = Table 3: 50 μmol/kg + E-2 (2 × 10 μg/rat)
# [3] = Table 3: compound alone, 50 μmol/kg (17β-estradiol: 2 × 10 μg/rat)
# [4] = Table 2: 50 μmol/kg + E-2 (2 × 10 μg/rat)
# [5] = Table 2: compound alone, 50 μmol/kg (17β-estradiol: 2 × 10 μg/rat)
SMILES,"Progesterone Receptor Levels, Cytosolic [1, 2] [fmol/mg protein]","Progesterone Receptor Levels, Nuclear [1, 2] [fmol/mg protein]","Progesterone Receptor Levels, Cytosolic [1, 3] [fmol/mg protein]","Progesterone Receptor Levels, Nuclear [1, 3] [fmol/mg protein]","Estrogen Receptor Levels, Cytosolic (estrogen receptor (ER); [2]) [fmol/mg protein]","Estrogen Receptor Levels, Nuclear (estrogen receptor (ER); [2]) [fmol/mg protein]","Estrogen Receptor Levels, Cytosolic (estrogen receptor (ER); [3]) [fmol/mg protein]","Estrogen Receptor Levels, Nuclear (estrogen receptor (ER); [3]) [fmol/mg protein]",Uterine Wet Weight (female rat uterus; [2]) [% body wt],Uterine Wet Weight (female rat uterus; [3]) [% body wt],"Progesterone Receptor Levels, Cytosolic [1, 4] [fmol/mg protein]","Progesterone Receptor Levels, Nuclear [1, 4] [fmol/mg protein]","Progesterone Receptor Levels, Cytosolic [1, 5] [fmol/mg protein]","Progesterone Receptor Levels, Nuclear [1, 5] [fmol/mg protein]","Estrogen Receptor Levels, Cytosolic (estrogen receptor (ER); [4]) [fmol/mg protein]","Estrogen Receptor Levels, Nuclear (estrogen receptor (ER); [4]) [fmol/mg protein]","Estrogen Receptor Levels, Cytosolic (estrogen receptor (ER); [5]) [fmol/mg protein]","Estrogen Receptor Levels, Nuclear (estrogen receptor (ER); [5]) [fmol/mg protein]",Uterine Wet Weight (female rat uterus; [4]) [% body wt],Uterine Wet Weight (female rat uterus; [5]) [% body wt]
Cc1cc2c(cc1Cl)oc1cc(Cl)c(Cl)cc12,607 ± 36,204 ± 12,554 ± 33,177 ± 11,85.7 ± 4.3,25.7 ± 1.3,113.9 ± 5.7,47.8 ± 2.4,0.237 ± 0.007,0.138 ± 0.026,,,,,,,,,,
"Cc1cc2c(cc1Cl)oc1c(Cl)cc(Cl)c(Cl)c12 [8-Methyl-1,2,4,7-tetraCDF, 8-methyl-1,2,4,7-tetrachlorodibenzofuran]",,,,,,,,,,,841 ± 73,399 ± 75,685 ± 59,303 ± 46,118.4 ± 14.6,66.5 ± 8.9,97.1 ± 10.1,40.6 ± 5.3,0.213 ± 0.017,0.175 ± 0.007
"Cc1cc2c(cc1Cl)oc1cc(Cl)cc(Cl)c12 [8-Methyl-1,3,7-triCDF, 8-Methyl-1,3,7-trichlorodibenzofuran]",,,,,,,,,,,1025 ± 151,952 ± 113,503 ± 63,795 ± 92,119.0 ± 14.3,51.1 ± 7.4,72.8 ± 8.3,26.4 ± 5.1,0.181 ± 0.007,0.127 ± 0.019
